Residues, ends and D or L forms follow the SMILES beside them. *: point of attachment. Cbz = O=C(OCc1ccccc1)*
B1: IFNγ: IFNγ (known to activate PD-L1 transcription) (protein, UniProt P01579 24-161, looked up)
Interferon gamma: QDPYVKEAENLKKYFNAGHSDVADNGTLFLGILKNWKEESDRKIMQSQIVSFYFKLFKNFKDDQSIQKSVETIKEDMNVKFFNSNKKKRDDFEKLTNYSVTDLNVQRKAIHELIQVMAELSPAAKTGKRKRSQMLFRG

Experiments:
SU86.86 cells = assay: qPCR, immunoblotting and flow cytometry of PD-L1 and MHC-I pathway expression in SU86.86 cells; assay type: cell-based, human; conditions: immunoblotting, mifepristone 20 μM, 48 h with MG132 (10 μM, 6 h) or chloroquine (20 μM, 4 h)
Experimental: (See Bardeesy, N., et al. supra). The human PDAC cell lines SU86.86 ([…]), SW1990 ([…]), BXPC-3 ([…]), Miapaca-2 ([…]), Capan-1 ([…]), ASPC-1 ([…]), Hs766T ([…]), Colo357/FG ([…]), L3.6PL ([…]), Panc28 ([…]), Capan-2 ([…]), CF-Pac-1 ([…]), Panc3 (sex unknown), Panc1 ([…]), Panc48 (sex unknown), and HPAC ([…]) were from Mien-Chie Hung's lab stock. […] The BXPC-3, Miapaca-2, Capan-1, ASPC-1, Colo357/FG, L3.6PL, Panc28, Capan-2, CF-Pac-1, Panc3, Panc1, Panc48, and HPAC cell lines were cultured in DMEM/F-12 (Corning, 10-092-CV) supplemented with 10% FBS and 1% penicillin/streptomycin. Cells were grown in a humidified incubator with 5% CO2 at 37° C., and low-passage stocks were maintained in a centralized lab cell bank. Short tandem repeat profiling and mycoplasma tests were done by the Cytogenetics and Cell Authentication Core at MD Anderson Cancer Center.
Membranes were blocked with 10% non-fat milk in TBST and incubated with the primary antibody at 4° C. overnight, followed by incubation with the secondary antibody conjugated with horseradish peroxidase (HRP).

[1] = test system: human PD-L1, HLA-B, HLA-C, and B2M gene promoter regions; assay: Luciferase reporter assay in SU86.86 cells; assay type: cell-based; conditions: IFNγ 10 ng ml^−1, 8 h, abrogated by knockdown of GR
Description: (§1) Human PD-L1 promoter-reporter constructs (Coelho, M. A., et al. Oncogenic RAS Signaling Promotes Tumo Immunoresistance by Stabilizing PD-L1 mRNA. Immunity 47, 1083-1099 e1086 (2017)) were purchased from Addgene (Addgene numbers: 107002, 107003, 107004, 107006, and 107007). The GR activity reporter plasmid was purchased from Qiagen (ID: C82DB0D7-3D10-4B1C-A358-411558D2DE01). The promoter regions of human HLA-B, HLA-C, and B2M were PCR-amplified from genomic DNA of the SU86.86 cell line (PCR primers are listed as SEQ ID NOs.: 1-6. The linearized pGL3-basic plasmid was amplified by PCR (Forward primer SEQ ID NO: 7; reverse primer SEQ ID NO: 8), and PCR products of promoter regions were ligated to linearized pGL3-basic using the In-Fusion HD Cloning Kit (Takara Bio, 638909).
(§2) The firefly luciferase reporter containing the human gene promoter was co-transfected with a Renilla luciferase vector (for normalization) into SU86.86 cells using jetPRIME transfection reagent (VWR, 89129-922). […] Firefly and Renilla luciferase activities were measured using a Dual-Luciferase Reporter Assay (Promega, E1910) on a microplate reader according to the manufacturer's protocol. Firefly luciferase activity was normalized to Renilla luciferase activity.

[2] = test system: human PD-L1 gene promoter regions; assay: Luciferase reporter assay in SW1990 cells; assay type: cell-based; conditions: IFNγ 10 ng ml^−1, 8 h, abrogated by knockdown of GR
Description: as §1, §2

Row | Molecule | effect on mifepristone-mediated PD-L1 downregulation and MHC-I upregulation (SU86.86 cells) | activity of the PD-L1 promoter reporters [1] | activity of the PD-L1 promoter reporters [2]
1 | CCN(CC)CCCC(C)Nc1ccnc2cc(Cl)ccc12 (stereo not shown) [chloroquine] | did not affect | – | –
2 | CC(C)C[C@@H](C=O)NC(=O)[C@H](CC(C)C)NC(=O)[C@H](CC(C)C)NC(=O)OCc1ccccc1 [MG132] (Cbz-Leu-Leu-Leu-aldehyde) | did not affect | – | –
3 | B1 | – | induced | induced

From US20250032506A1, “GLUCOCORTICOID RECEPTOR BLOCKADE WITH MIFEPRISTONE TO SENSITIZE PANCREATIC CANCER TO IMMUNOTHERAPY” (BOARD OF REGENTS, THE UNIVERSITY OF TEXAS SYSTEM, priority 2021, published 2025)
